The source of these data is article PMC7524204 (Clinical cancer research : an official journal of the …, 2016).

One data set has as its system 8505C. As to the kind of experiment: Flow cytometric sub-G1 programmed cell death. The data set is classed as cell-based, human. Conditions: short-term treatment, S10, Q20, S10Q20. In general terms: A flow cytometer gives signals particle by particle.
The subject of data set [1] is 8505C cells. As to the kind of experiment: CellTiter-Glo dose-response in 8505C cells after siRNA knockdown. The format is cell-based, human. Particulars: for IC50: Homo sapiens, 72 h. Background: Cellular ATP, detected with luciferase, serves as a proxy for viable cell number.
The test system of the next data set is THJ-16T. As to the kind of experiment: 72-hr survival dose-response of ATC cell line THJ-16T.
The test system of another data set is THJ-29T. As to the kind of experiment: 72-hr survival dose-response of ATC cell line THJ-29T. The format is cell-based. Particulars: Homo sapiens.
For data set [2] the following is noted: for Histological evidence of toxicity: GI, affected/total (fraction) / Histological evidence of toxicity: Heart, affected/total (fraction) / Histological evidence of toxicity: Liver, Glycogen, affected/total (fraction) / Histological evidence of toxicity: Liver, Vaculation, affected/total (fraction) / Histological evidence of toxicity: Pancreas, affected/total (fraction): C57BL6/J; for Histological evidence of toxicity: GI, affected/total (fraction) / Histological evidence of toxicity: Heart, affected/total (fraction) / Histological evidence of toxicity: Liver, Glycogen, affected/total (fraction) / Histological evidence of toxicity: Liver, Vaculation, affected/total (fraction) / Histological evidence of toxicity: Pancreas, affected/total (fraction) / Lethality or lethargy: 7 days; for Lethality or lethargy: super-therapeutic doses.

For data set [3], the system named is 8505C cells. Put plainly: Mouse orthotopic xenograft model of ATC, survival. Conditions: for Median Survival: Nu/Nu mice, thyroid orthotopic 8505C, control 22 days; for Hazard ratio: relative Control (untreated) mice, orthotopic 8505C.
In another data set the test system is THJ-21T. Put plainly: 72-hr survival dose-response of ATC cell line THJ-21T. Conditions: Homo sapiens. The data set is classed as cell-based.
A further data set has as its system NFκB-p65 (RelA). Put plainly: Western blot of NFκB-p65/RelA expression. The data set is classed as cell-based, human. Conditions: 8505C and THJ-16T cells, S 10 µM, Q 20 µM.

In the case of `CNC(=O)c1cc(Oc2ccc(NC(=O)Nc3ccc(Cl)c(C(F)(F)F)c3)cc2)ccn1` [Sorafenib], the “sub-G1 DNA” value in the data set on 8505C is recorded as “Increased”. Also, the “Increased sensitization by p65/RelA siRNA compared to Scr siRNA” value with 8505C cells [1] is recorded as “approximately 2 fold”. For the same molecule, in the data set on 8505C cells [1] (scrambled (Scr) siRNA), the IC50 (usually the concentration that gives 50% inhibition) was 10.5 µM. In addition, half-maximal inhibition in the data set with 8505C cells [1] (siRNA targeting p65/RelA) (IC50) required 5.15 µM. This molecule came in with an IC50 with THJ-16T (THJ-16T, 72-hr survival) of 31 µM. For the same molecule, inhibition with THJ-29T was half-maximal at 4.5 µM (IC50). Moreover, in data set [2] (mouse, in vivo), the “Histological evidence of toxicity: GI, affected/total (fraction)” value was 0/5 (0); the “Histological evidence of toxicity: Heart, affected/total (fraction)” value is 0/5 (0); the “Histological evidence of toxicity: Liver, Glycogen, affected/total (fraction)” value is 4/5 (0.80); the “Histological evidence of toxicity: Liver, Vaculation, affected/total (fraction)” value is reported as 4/5 (0.80). Besides, the “Histological evidence of toxicity: Pancreas, affected/total (fraction)” value in data set [2] (mouse, in vivo) is recorded as 5/5 (1.00). Also, the Lethality or lethargy entry in data set [2] is “No lethality or lethargy”. Moreover, in the data set with 8505C cells [3], the “Median Survival” value amounted to 26 days and the Hazard ratio is recorded as 0.846. In the data set on THJ-21T, this molecule displayed an IC50 of 12.4 µM.

`COc1cccc2c1C(=O)c1c(O)c3c(c(O)c1C2=O)C[C@@](O)(C(=O)CO)C[C@@H]3O[C@H]1C[C@H](N)[C@H](O)[C@H](C)O1` [Doxorubicin]: in data set [2] (mouse, in vivo), the “Histological evidence of toxicity: GI, affected/total (fraction)” value is 4/5 (0.80); the “Histological evidence of toxicity: Heart, affected/total (fraction)” value is 0/5 (0); the “Histological evidence of toxicity: Liver, Glycogen, affected/total (fraction)” value is 3/5 (0.60); the “Histological evidence of toxicity: Liver, Vaculation, affected/total (fraction)” value is on record as 4/5 (0.80). In addition, in data set [2] (mouse, in vivo), the “Histological evidence of toxicity: Pancreas, affected/total (fraction)” value is on record as 4/5 (0.80); the “Level of platelets in blood” value is “increased level”; the “Number of RBC's and hemoglobin (Hgb)” value is given as “reduction”. In data set [2], the Lethality or lethargy result was “No lethality or lethargy”. Besides, in the data set on 8505C cells [3], the “Median Survival” value is listed as 31 days and the Hazard ratio is listed as 0.709.

For `CCN(CC)CCCC(C)Nc1c2ccc(Cl)cc2nc2ccc(OC)cc12` (centres unmarked) [Quinacrine], in the data set with 8505C, the “sub-G1 DNA” value is given as “Increased”. In addition, the “Impact of p65/RelA siRNA on survival dose-response relationship” value in the data set on 8505C cells [1] is “did not have any significant impact”. In the data set with 8505C cells [1] (Mcl-1 siRNA), the “Effect of Mcl-1 knockdown on IC50” value is listed as “did not affect”. In the data set with THJ-16T (Homo sapiens, 72 h), this molecule displayed an IC50 of 18.4 µM. The same molecule showed an IC50 in the data set on THJ-29T of 12.7 µM. In data set [2] (mouse, in vivo), the “Histological evidence of toxicity: GI, affected/total (fraction)” value is on record as 0/4 (0); the “Histological evidence of toxicity: Heart, affected/total (fraction)” value is 1/5 (0.20); the “Histological evidence of toxicity: Liver, Glycogen, affected/total (fraction)” value is 3/4 (0.75); the “Histological evidence of toxicity: Liver, Vaculation, affected/total (fraction)” value was 3/4 (0.75). Besides, in data set [2] (mouse, in vivo), the “Histological evidence of toxicity: Pancreas, affected/total (fraction)” value was 0/4 (0). The “Median Survival” value with 8505C cells [3] stood at 32 days. The molecule further gave an IC50 in the data set on THJ-21T of 15.4 µM. Also, the “Expression of NFκB-p65 (RelA)” value in the data set on NFκB-p65 (RelA) is on record as “inhibited”.
